Literature values as cited in patent US9918986B2, “Methods and compounds for preventing osteoarthritis” (UNIVERSITY COLLEGE CARDIFF CONSULTANTS LIMITED, priority 2013, dated 2018).

Columns and labels:
AMPA receptor = conditions: cited from earlier work
Kainate receptor = conditions: cited from earlier work
human RA FLS = conditions: cited from earlier work
IL-6 receptor = biological target: T1, IL-6 receptor (Homo sapiens, UniProt P08887); conditions: RA patients; cited from earlier work
T1 construct: host or cells: RA patients (endogenous receptor)
T1 sequence (P08887 20-468): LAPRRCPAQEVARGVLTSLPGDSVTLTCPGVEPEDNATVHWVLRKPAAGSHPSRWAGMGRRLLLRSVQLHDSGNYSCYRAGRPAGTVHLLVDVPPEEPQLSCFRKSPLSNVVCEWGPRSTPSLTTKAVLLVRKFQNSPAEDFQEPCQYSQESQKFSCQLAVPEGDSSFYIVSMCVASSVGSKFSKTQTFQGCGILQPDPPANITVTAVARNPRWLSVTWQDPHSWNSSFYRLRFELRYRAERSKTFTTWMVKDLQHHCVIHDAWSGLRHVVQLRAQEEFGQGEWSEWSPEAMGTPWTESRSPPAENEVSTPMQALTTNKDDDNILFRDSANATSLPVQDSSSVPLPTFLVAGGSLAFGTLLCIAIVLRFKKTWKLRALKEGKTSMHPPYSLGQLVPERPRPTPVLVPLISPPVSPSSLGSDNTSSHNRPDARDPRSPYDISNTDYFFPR

rodent arthritis = conditions: oral administration, cited from earlier work

| Molecule | AMPA receptor antagonist (AMPA receptor) | Kainate receptor antagonist (Kainate receptor) | other results |
| --- | --- | --- | --- |
| COc1cc2c(cc1OC)C(c1ccc(N)cc1)=NNC(=O)C2 [CFM-2, 1-(4′-Aminophenyl)-3,5-dihydro-7,8-dimethoxy-4H-2,3-benzodiazepin-4-one] | Yes | No | MMP-2 expression by FLS (human RA FLS): did not affect |
| O=C1Nc2c(cc([N+](=O)[O-])c3c2CCCC3)C1=NO [NS-102] | Weak | Yes |  |
| O=C(O)[C@@H]1C[C@H]2C[C@@H](CCc3nn[nH]n3)CC[C@H]2CN1 [Tezampanel] | Yes | Yes |  |
| NCCCNCCCCNCCCNC(=O)Cc1cccc2ccccc12 [1-NAS, 1-naphthyl acetyl sperm me] | Yes | No |  |
| O=C(O)c1cc(=O)c2ccccc2[nH]1 [Kynurenic acid] | Yes | Yes |  |
| tocilizumab: anti-IL-6 receptor inhibitor |  |  | synovitis and radiographic changes (IL-6 receptor): significantly improves |
| CC1=NN=C(c2ccc(N)cc2)c2cc3c(cc2C1)OCO3 [GYKI52466, 4-(8-Methyl-9H-1,3-dioxolo[4,5-h][2-,3]benzodiazepin-5-yl)-benzenamine] | Yes | Yes | body weight loss (rodent arthritis): attenuated; hyperalgesia (rodent arthritis): attenuated; primary oedema on the right paw (rodent arthritis): no effect; secondary, generalized inflammation-induced swelling of the left paw (rodent arthritis; second phase of chronic disease): no effect |
| NC(CCCP(=O)(O)O)C(=O)O [D-AP5] |  |  | MMP-2 expression by FLS (human RA FLS): did not affect |
| C[C@]12N[C@H](Cc3ccccc31)c1ccccc12 [MK801] |  |  | proMMP-2 release (human RA FLS; RA FLS): significantly increased |
| Cc1cn(C[C@H](N)C(=O)O)c(=O)n(Cc2cc(-c3ccccc3)sc2C(=O)O)c1=O [ACET] | No | Yes |  |
| CCNC(=O)CC[C@H](N)C(=O)O [L-Theanine, gamma-glutamylethylamide or 5-N-ethyl-glutamine] | Yes | Yes |  |
| O=C1N=c2cc([N+](=O)[O-])c([N+](=O)[O-])cc2=NC1=O [DNQX, 6,7-dinitroquinoxaline-2,3-dione] | Yes | Yes |  |
| N#Cc1cc2c(cc1[N+](=O)[O-])=NC(=O)C(=O)N=2 [CNQX, 6-cyano-7-nitroquinoxaline-2,3-dione] | Yes | Yes |  |
